Test systems include 786-0; A498; DU-145; HCT-116; HCT-15; IGROV-1; KM12; M14; Malme-3M; NCI-H226; NCI-H23; NCI-H522; OVCAR-4; OVCAR-5; PC-3; RPMI-8226; SK-MEL-5; SNB-19; T47D; UACC-257.
What all share (experiment): NCI tumour cell line growth inhibition, 48 h

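1) Cells in 96-well plates. 2) Compound, 48 h, 5 concentrations. 3) Linear interpolation between surrounding doses. 4) Unreached endpoint = highest concentration. The concentration for 50% growth inhibition is given as GI50.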 Calls of active or inactive are those of the source. Cut-off read from the data, not from the text of the source: active = GI50 up to about 1.1 µM and inactive = higher.

As to `Clc1nc(Nc2nc3ccccc3[nH]2)nc(Cl)c1-c1ccccc1`, the GI50 in the assay on 786-0 was 16.1 µM (inactive); in the assay on A498, 21.5 µM (inactive); in the assay on DU-145, 74.3 µM (inactive); in the assay on HCT-116, 21.1 µM (inactive); with HCT-15, 14.4 µM; in the assay with IGROV-1, 19 µM (inactive). In addition, the GI50 with KM12 was 40.8 µM (inactive); in the assay on M14 it was 35.1 µM (inactive); in the assay on Malme-3M, 19.1 µM (inactive); in the assay on NCI-H226, 20.5 µM (inactive); in the assay with NCI-H23, 17.3 µM (inactive); with NCI-H522, 17.3 µM (inactive). Moreover, the GI50 with OVCAR-4 is 14.8 µM (inactive); in the assay with OVCAR-5, 28.3 µM (inactive); in the assay on PC-3, 23 µM (inactive); in the assay with RPMI-8226, 34.3 µM (inactive); in the assay with SK-MEL-5, 20.9 µM (inactive); with SNB-19, 36.1 µM (inactive). Besides, the GI50 is 40.7 µM (inactive) in the assay with T47D and 29.7 µM (inactive) with UACC-257.
As to `N#CC(C#N)=Cn1c(=S)[nH]c2ccc([N+](=O)[O-])cc21`, the GI50 in the assay with 786-0, in the assay with A498, in the assay with DU-145, in the assay on HCT-116, in the assay with IGROV-1 and in the assay on KM12 was > 100 µM (inactive) throughout. Further, the GI50 with M14, with Malme-3M, in the assay with NCI-H226, in the assay on NCI-H23, with NCI-H522 and in the assay on OVCAR-4 was > 100 µM (inactive) each time. The GI50 with OVCAR-5, with PC-3, with RPMI-8226, in the assay with SK-MEL-5, in the assay on SNB-19 and with T47D was > 100 µM (inactive) each time. Besides, in the assay on UACC-257, the GI50 was > 100 µM (inactive).
Consider `CCOc1ccc(Nc2nc(N)nc(N)c2N=O)cc1`, for which the GI50 in the assay on 786-0 was > 100 µM (inactive); in the assay on A498, > 100 µM (inactive); with DU-145, 38 µM (inactive); with HCT-116, > 100 µM (inactive); in the assay on HCT-15, 37.7 µM; in the assay on IGROV-1, 7.69 µM (inactive). For the same compound, the GI50 is > 100 µM (inactive) with KM12; > 100 µM (inactive) in the assay with M14; 49 µM (inactive) in the assay on Malme-3M; 39.6 µM (inactive) in the assay with NCI-H226; 59.7 µM (inactive) in the assay with NCI-H23; 55.5 µM (inactive) with NCI-H522. The GI50 was 69.3 µM (inactive) with OVCAR-4; > 100 µM (inactive) with OVCAR-5; 28.4 µM (inactive) in the assay with PC-3; 47.4 µM (inactive) with RPMI-8226; 49.5 µM (inactive) in the assay with SK-MEL-5; 61 µM (inactive) in the assay with SNB-19. In addition, the GI50 in the assay with T47D was 19.2 µM (inactive); in the assay on UACC-257, 54 µM (inactive).
On to `Cc1ccc(-c2n[nH]c(=O)n2/N=C\c2ccc([N+](=O)[O-])cc2)cc1`, for which the GI50 was > 100 µM (inactive) with 786-0; > 100 µM (inactive) in the assay with A498; > 100 µM (inactive) in the assay on DU-145; 72.6 µM (inactive) in the assay on HCT-116; 86.7 µM in the assay with HCT-15; > 100 µM (inactive) in the assay on IGROV-1. Also, the GI50 was > 100 µM (inactive) with KM12; 58.2 µM (inactive) in the assay on M14; > 100 µM (inactive) in the assay with Malme-3M; > 100 µM (inactive) in the assay with NCI-H226; > 100 µM (inactive) in the assay with NCI-H23; > 100 µM (inactive) in the assay with NCI-H522. Moreover, the GI50 is > 100 µM (inactive) with OVCAR-4; > 100 µM (inactive) in the assay on OVCAR-5; > 100 µM (inactive) in the assay on PC-3; 76.9 µM (inactive) in the assay on RPMI-8226; 92.9 µM (inactive) in the assay with SK-MEL-5; > 100 µM (inactive) in the assay on SNB-19. Also, the GI50 in the assay on T47D is > 91.8 µM (inactive); with UACC-257, > 100 µM (inactive).
In the case of `CN1CCN(CCCCN2c3ccccc3Sc3ccc(C(=O)c4ccccc4)cc32)CC1`, the GI50 with 786-0 was 1.58 µM (inactive); in the assay with A498, 1.56 µM (inactive); in the assay with DU-145, 2.29 µM (inactive); with HCT-116, 1.82 µM (inactive); in the assay on HCT-15, 1.67 µM; with IGROV-1, 1.72 µM (inactive). Further, the GI50 was 1.49 µM (inactive) in the assay with KM12; 1.82 µM (inactive) in the assay on M14; 2.34 µM (inactive) with Malme-3M; 1.8 µM (inactive) in the assay with NCI-H226; 1.85 µM (inactive) in the assay with NCI-H23; 1.78 µM (inactive) with NCI-H522. Moreover, the GI50 was 2.08 µM (inactive) with OVCAR-4; 2.84 µM (inactive) in the assay on OVCAR-5; 1.5 µM (inactive) in the assay on PC-3; 1.79 µM (inactive) in the assay on RPMI-8226; 1.54 µM (inactive) in the assay on SK-MEL-5; 1.91 µM (inactive) with SNB-19. Moreover, the GI50 in the assay with T47D is 5.65 µM (inactive); with UACC-257, 1.75 µM (inactive).
For the compound `CC(C)(C)c1ccc(/C=N/NC(=O)CSCC(=O)N/N=C/c2ccc(C(C)(C)C)cc2)cc1`, the GI50 was 1.95 µM (inactive) in the assay with 786-0; 1.46 µM (inactive) in the assay on A498; 5.83 µM (inactive) with DU-145; 2.03 µM (inactive) in the assay with HCT-116; 4.14 µM in the assay with HCT-15; 0.64 µM (active) in the assay with IGROV-1. Also, the GI50 is 2.53 µM (inactive) in the assay with KM12; 1.57 µM (inactive) with M14; 9.1 µM (inactive) in the assay on Malme-3M; 2.09 µM (inactive) with NCI-H226; 2.5 µM (inactive) in the assay with NCI-H23; 4.47 µM (inactive) with NCI-H522. For the same compound, the GI50 with OVCAR-4 is 3.88 µM (inactive); with OVCAR-5, 3.03 µM (inactive); with PC-3, 2.8 µM (inactive); in the assay with RPMI-8226 it was 2.77 µM (inactive); with SK-MEL-5, 1.87 µM (inactive); with SNB-19, 2.93 µM (inactive). The GI50 in the assay on T47D was 4.88 µM (inactive); in the assay with UACC-257, 3.02 µM (inactive).
For the compound `COC1=C(Cl)C(=O)c2c(O)ccc(O)c2C1=O`, the GI50 is 0.287 µM (active) in the assay on 786-0; 0.794 µM (active) in the assay on A498; 2.38 µM (inactive) in the assay with DU-145; 0.536 µM (active) with HCT-116; 1.34 µM with HCT-15; 1.7 µM (inactive) in the assay on IGROV-1. Further, the GI50 with KM12 was 6.17 µM (inactive); in the assay with M14, 0.541 µM (active); in the assay on Malme-3M, 0.478 µM (active); in the assay with NCI-H226, 11.2 µM (inactive); with NCI-H23 it was 1.91 µM (inactive); in the assay with NCI-H522, 0.119 µM (active). In addition, the GI50 with OVCAR-4 is 2.07 µM (inactive); with OVCAR-5 it was 3.01 µM (inactive); with PC-3, 3.07 µM (inactive); with RPMI-8226 it was 0.272 µM (active); with SK-MEL-5 it was 1.4 µM (inactive); in the assay on SNB-19, 5.98 µM (inactive). For the same compound, the GI50 in the assay with T47D was 1.03 µM (active); in the assay with UACC-257, 1.77 µM (inactive).
With `COc1ccc(/C=N/Nc2nc(=S)[nH]c3[nH]ncc23)cc1`, the GI50 in the assay with 786-0 was 43.4 µM (inactive); in the assay with A498, 40.9 µM (inactive); in the assay on DU-145, 36.5 µM (inactive); in the assay with HCT-116, > 100 µM (inactive); in the assay on HCT-15 it was greater than 100 µM; in the assay with IGROV-1 it was 25 µM (inactive). For the same compound, the GI50 is 49.9 µM (inactive) with KM12; 41.8 µM (inactive) in the assay on M14; 38.2 µM (inactive) in the assay on Malme-3M; > 100 µM (inactive) in the assay on NCI-H226; 27.5 µM (inactive) in the assay with NCI-H23; 26.2 µM (inactive) with NCI-H522. For the same compound, the GI50 in the assay on OVCAR-4 was 49 µM (inactive); in the assay with OVCAR-5, 45.5 µM (inactive); in the assay on PC-3, 52.2 µM (inactive); in the assay with RPMI-8226, 2.5 µM (inactive); with SK-MEL-5, 30 µM (inactive); in the assay on SNB-19, 22.2 µM (inactive). Besides, the GI50 with T47D was 14.5 µM (inactive); in the assay with UACC-257, 55.6 µM (inactive).
Consider `CCCCOc1ccc(S(=O)(=O)N/C(=N\O)Nc2ccc(Cl)cc2)cc1`, for which the GI50 is 15.8 µM (inactive) with 786-0; 13.4 µM (inactive) with A498; 15.9 µM (inactive) in the assay on DU-145; 16.9 µM (inactive) in the assay on HCT-116; 14.6 µM in the assay with HCT-15; 16.6 µM (inactive) with KM12. In addition, the GI50 in the assay with M14 is 15.2 µM (inactive); with Malme-3M, 17.7 µM (inactive); in the assay on NCI-H226, 24 µM (inactive); with NCI-H23, 14.7 µM (inactive); in the assay on NCI-H522, 14.7 µM (inactive); in the assay with OVCAR-4, 10.8 µM (inactive). For the same compound, the GI50 was 18.6 µM (inactive) with OVCAR-5; 15.8 µM (inactive) with PC-3; 21.1 µM (inactive) in the assay on RPMI-8226; 14.3 µM (inactive) with SK-MEL-5; 15.2 µM (inactive) in the assay on SNB-19; 6.64 µM (inactive) with T47D. For the same compound, the GI50 in the assay on UACC-257 was 15.5 µM (inactive).
As to `O=C(O)C1CCCCC1c1c2ccc(=O)c(O)c-2oc2c(O)c(O)ccc12` (stereo unspecified), the GI50 in the assay with 786-0 was 19.3 µM (inactive); with A498, 21.7 µM (inactive); in the assay on DU-145, 52.1 µM (inactive); in the assay with HCT-116, 13.2 µM (inactive); in the assay on IGROV-1, 26.2 µM (inactive); in the assay on KM12, 35.2 µM (inactive). Besides, the GI50 with M14 was 64.7 µM (inactive); in the assay on Malme-3M it was 95.7 µM (inactive); in the assay with NCI-H226 it was 12.1 µM (inactive); in the assay with NCI-H522, 14.5 µM (inactive); in the assay with OVCAR-4 it was 21.7 µM (inactive); in the assay on OVCAR-5, > 100 µM (inactive). Besides, the GI50 is > 100 µM (inactive) in the assay on PC-3; 29.9 µM (inactive) in the assay with RPMI-8226; 25.5 µM (inactive) in the assay with SK-MEL-5; 29.4 µM (inactive) in the assay with SNB-19; 46.2 µM (inactive) in the assay with T47D; > 100 µM (inactive) with UACC-257.

The values are drawn from ChEMBL document CHEMBL1201862, “PubChem BioAssay data set” (2004).
